Assay results as given in ChEMBL document CHEMBL5338773, “First-in-Class Selective Inhibitors of the Lysine Acetyltransferase KAT8” (J Med Chem, 2023).
Calls of active or inactive are those of the source. The calls are words filed in the database; no cut-off is given here.

Legend:
[1] = system: HeLa; assay: Induction of apoptosis in human HeLa cells assessed as slight increase in apoptotic cells at 50 to 100 uM incubated for 72 hrs by Annexin V-FITC staining based flow cytometry; type: functional, cell-based; conditions: dose 50-100 µM
[2] = biological target: T1, Histone acetyltransferase KAT8 (Homo sapiens) (UniProt Q9H7Z6); assay: Inhibition of human KAT8 in human HT-29 cells assessed as change in KAT8 expression level at 10 to 50 uM incubated for 24 hrs by Western blot analysis; type: cell-based; conditions: dose 10-50 µM
T1 sequence (whole entry): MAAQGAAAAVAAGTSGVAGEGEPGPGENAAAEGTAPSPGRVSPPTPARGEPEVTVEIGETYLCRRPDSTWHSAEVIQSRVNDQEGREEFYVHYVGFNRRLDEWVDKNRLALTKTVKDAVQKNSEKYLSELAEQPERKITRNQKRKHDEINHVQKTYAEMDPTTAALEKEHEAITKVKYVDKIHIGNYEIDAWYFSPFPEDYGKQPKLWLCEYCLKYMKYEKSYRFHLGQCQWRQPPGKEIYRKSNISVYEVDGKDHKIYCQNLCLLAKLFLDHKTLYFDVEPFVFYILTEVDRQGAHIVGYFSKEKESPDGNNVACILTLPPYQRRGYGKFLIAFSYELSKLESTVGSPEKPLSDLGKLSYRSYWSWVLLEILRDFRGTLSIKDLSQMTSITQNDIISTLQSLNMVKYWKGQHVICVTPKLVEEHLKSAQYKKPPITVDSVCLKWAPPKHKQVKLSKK

[3] = system: A549; assay: Antiproliferative activity against human A549 cells assessed as cell proliferation inhibition at 10 to 100 uM incubated for 72 hrs by MTT assay; type: functional, cell-based; conditions: dose 10-100 µM
[4] = system: NCI-H1299; assay: Induction of autophagy in human NCI-H1299 cells stably expressing EGFP-LC3 assessed as increase in autophagosome formation by measuring fluorescence spots at 10 to 100 uM incubated for 48 hrs by Fluorescence microscopy; type: functional, cell-based; conditions: dose 10-100 µM
[5] = system: NCI-H1299; assay: Antiproliferative activity against human NCI-H1299 cells assessed as cell proliferation inhibition at 10 to 100 uM incubated for 72 hrs by MTT assay; type: functional, cell-based; conditions: dose 10-100 µM
[6] = system: MCF7; assay: Antiproliferative activity against human MCF7 cells assessed as cell proliferation inhibition at 10 to 100 uM incubated for 72 hrs by MTT assay; type: functional, cell-based; conditions: dose 10-100 µM
[7] = system: AHH-1; assay: Cytotoxicity against human AHH-1 cells assessed as inhibition of cell viability at 25 to 200 uM incubated for 72 hrs by MTT assay; type: toxicity, cell-based; conditions: ahh-1, 72 h, dose 25-200 µM
[8] = Thiol reactivity of compound at pH 7.5 buffer at 0.5 mM and measured upto 24 hrs in presence of DTT and BME by HPLC analysis; type: physicochemical; conditions: pH 7.5, 24 h, 500 µM
[9] = Cytotoxicity against human primary lung fibroblast assessed as inhibition of cell viability at 25 to 200 uM incubated for 72 hrs by MTT assay; type: toxicity, cell-based; conditions: dose 25-200 µM
[10] = system: NCI-H460; assay: Antiproliferative activity against human NCI-H460 cells assessed as cell proliferation inhibition at 10 to 100 uM incubated for 72 hrs by MTT assay; type: functional, cell-based; conditions: dose 10-100 µM
[11] = system: HeLa; assay: Induction of cell cycle arrest in human HeLa cells assessed as increase in number of cells at sub-G1 phase with DNA hypodiploid at 50 uM incubated for 72 hrs by PI-staining based flow cytometry (Rvb=2%); type: functional
[12] = GSH reactivity of compound at pH 7.5 buffer at 0.5 mM and measured upto 24 hrs in presence of DTT and BME by HPLC analysis; type: physicochemical; conditions: pH 7.5, 24 h, 500 µM
[13] = system: HT-29; assay: Antiproliferative activity against human HT-29 cells assessed as cell proliferation inhibition at 10 to 100 uM incubated for 72 hrs by MTT assay; type: functional, cell-based; conditions: dose 10-100 µM
[14] = system: HeLa; assay: Induction of cell cycle arrest in human HeLa cells assessed as increase in number of cells at sub-G1 phase with DNA hypodiploid at 100 uM incubated for 72 hrs by PI-staining based flow cytometry (Rvb=2%); type: functional
[15] = biological target: T1, Histone acetyltransferase KAT8 (Homo sapiens); assay: Inhibition of human KAT8 in human HT-29 cells assessed as decrease in histone H4K16 acetylation level at 10 to 50 uM incubated for 24 hrs by Western blot analysis; type: cell-based; conditions: dose 10-50 µM
[16] = organism: Homo sapiens; assay: Inhibition of human recombinant KDAC1 using Boc-Lys-(Ac)-AMC as substrate at 50 to 100 uM incubated for 45 mins by fluorescence microplate reader analysis; conditions: dose 50-100 µM
[17] = system: HCT-116; assay: Induction of cell cycle arrest in human HCT-116 cells assessed as increase in number of cells at sub-G1 phase with DNA hypodiploid at 50 uM incubated for 72 hrs by PI-staining based flow cytometry (Rvb=2%); type: functional
[18] = biological target: T1, Histone acetyltransferase KAT8 (Homo sapiens); assay: Reversible inhibition of N-terminal 6His tagged KAT8 (173 to 458 residues) (unknown origin) expressed in Escherichia coli BL21(DE3) using biotinylated histone H4 peptide and [3H]Acetyl-CoA as substrates at 10XIC50 preincubated for 30 mins followed by dilution and substrate addition and measured upto 240 mins by MicroBeta microplate counter analysis; conditions: time 270.0 min
[19] = biological target: Histone acetyltransferase KAT2A (Homo sapiens) (UniProt Q92830); assay: Inhibition of recombinant human KAT2A (323 to 837 residues) using histone H3 peptide and [3H]-acetyl-coA as substrates at 200 uM incubated for 1 hrs by liquid scintillation counter analysis
[20] = biological target: T1, Histone acetyltransferase KAT8 (Homo sapiens); assay: Inhibition of human KAT8 in human HT-29 cells assessed as change in histone H3K27 acetylation level by measuring fluorescence intensity in nucleus at 50 uM incubated for 24 hrs by DAPI staining based immunofluorescence analysis; type: cell-based
[21] = system: U-251; assay: Antiproliferative activity against human U-251 cells assessed as cell proliferation inhibition at 10 to 100 uM incubated for 72 hrs by MTT assay; type: functional, cell-based; conditions: dose 10-100 µM
[22] = system: NCI-H1299; assay: Induction of autophagy in human NCI-H1299 cells stably expressing EGFP-LC3 assessed as increase in p62 expression level at 10 to 100 uM incubated for 48 hrs by Western blot analysis; type: functional, cell-based; conditions: dose 10-100 µM
[23] = biological target: T1, Histone acetyltransferase KAT8 (Homo sapiens); assay: Binding affinity to KAT8 in human HT-29 cells assessed as stabilization of enzyme against thermal induced aggregation at 59 degreeC at 100 nM incubated for 4 hrs by Western blot analysis; type: cell-based
[24] = system: HCT-116; assay: Induction of apoptosis in human HCT-116 cells assessed as slight increase in apoptotic cells at 50 to 100 uM incubated for 72 hrs by Annexin V-FITC staining based flow cytometry; type: functional, cell-based; conditions: dose 50-100 µM
[25] = system: HCT-116; assay: Effect on cell cycle progression in human HCT-116 cells assessed as changes in cell cycle stages at 50 to 100 uM incubated for 72 hrs by PI-staining based flow cytometry; type: functional; conditions: dose 50-100 µM
[26] = biological target: T1, Histone acetyltransferase KAT8 (Homo sapiens); assay: Time dependent inhibition of N-terminal 6His tagged KAT8 (173 to 458 residues) (unknown origin) expressed in Escherichia coli BL21(DE3) using biotinylated histone H4 peptide and [3H]Acetyl-CoA as substrates at 200 uM preincubated for 5 to 120 mins followed by substrate addition and measured after 4 hrs by MicroBeta microplate counter analysis; conditions: time 245-360 min
[27] = system: NCI-H1299; assay: Induction of autophagy in human NCI-H1299 cells stably expressing EGFP-LC3 assessed as change in LC3-II/LC3-I ratio at 10 to 100 uM incubated for 48 hrs by Western blot analysis; type: functional, cell-based; conditions: dose 10-100 µM

Chain of Histone acetyltransferase KAT2A (Homo sapiens) (Q92830 2-837 limits assumed): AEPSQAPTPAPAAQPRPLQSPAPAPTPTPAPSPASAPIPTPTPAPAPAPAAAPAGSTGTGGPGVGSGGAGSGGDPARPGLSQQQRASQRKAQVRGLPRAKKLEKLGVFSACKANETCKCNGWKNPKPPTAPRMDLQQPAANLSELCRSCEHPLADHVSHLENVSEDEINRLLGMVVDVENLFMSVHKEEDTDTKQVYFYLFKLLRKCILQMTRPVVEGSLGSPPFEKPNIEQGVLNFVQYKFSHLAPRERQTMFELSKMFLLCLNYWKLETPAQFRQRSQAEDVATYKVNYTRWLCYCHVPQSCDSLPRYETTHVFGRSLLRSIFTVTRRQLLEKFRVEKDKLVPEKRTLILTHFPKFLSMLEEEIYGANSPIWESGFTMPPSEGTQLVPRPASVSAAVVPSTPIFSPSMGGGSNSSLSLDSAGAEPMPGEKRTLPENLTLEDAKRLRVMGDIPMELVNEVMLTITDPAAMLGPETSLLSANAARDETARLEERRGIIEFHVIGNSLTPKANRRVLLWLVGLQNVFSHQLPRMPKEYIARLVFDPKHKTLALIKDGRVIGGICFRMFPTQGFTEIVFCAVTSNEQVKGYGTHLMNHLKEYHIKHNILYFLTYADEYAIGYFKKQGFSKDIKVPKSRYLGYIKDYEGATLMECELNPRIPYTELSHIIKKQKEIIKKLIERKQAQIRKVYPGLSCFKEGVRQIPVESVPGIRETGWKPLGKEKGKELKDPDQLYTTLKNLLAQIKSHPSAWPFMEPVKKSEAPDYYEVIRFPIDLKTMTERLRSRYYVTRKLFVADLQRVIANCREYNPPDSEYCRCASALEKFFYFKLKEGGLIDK

## CC1=NN(c2ccc(C(=O)O)cc2)C(=O)/C1=C\c1ccc[nH]1
[1]
  Activity: Active
[2]
  inhibition: inactive
[3]
  Activity: Dose-Dependent Effect
[4]
  Activity: Active
[5]
  Activity: Dose-Dependent Effect
[6]
  Activity: inactive
[7]
  Activity: Non-Toxic
[8]
  Drug metabolism: Not Active
[9]
  Activity: Non-Toxic
[10]
  Activity: Active
[11]
  Activity: 2%
[12]
  Drug metabolism: Not Active
[13]
  Activity: Active
[14]
  Activity: 5%
[15]
  inhibition: Active
[16]
  inhibition: inactive
[17]
  Activity: 3%
[18]
  inhibition: Active
[19]
  inhibition: inactive
[20]
  inhibition: inactive
[21]
  Activity: inactive
[22]
  Activity: Active
[23]
  Activity: Active
[24]
  Activity: Active
[25]
  Activity: inactive
[26]
  inhibition: inactive
[27]
  Activity: Active

## O=C(O)c1ccc(N2N=C(c3ccccc3)/C(=C/c3ccc[nH]3)C2=O)cc1
[1]
  Activity: Active
[2]
  inhibition: inactive
[3]
  Activity: Dose-Dependent Effect
[4]
  Activity: Active
[5]
  Activity: Dose-Dependent Effect
[6]
  Activity: inactive
[7]
  Activity: Non-Toxic
[8]
  Drug metabolism: Not Active
[9]
  Activity: Non-Toxic
[10]
  Activity: inactive
[11]
  Activity: 2%
[12]
  Drug metabolism: Not Active
[13]
  Activity: Active
[14]
  Activity: 4%
[15]
  inhibition: Active
[16]
  inhibition: inactive
[17]
  Activity: 7%
[18]
  inhibition: Active
[19]
  inhibition: inactive
[20]
  inhibition: inactive
[21]
  Activity: inactive
[22]
  Activity: Active
[23]
  Activity: Active
[24]
  Activity: Active
[25]
  Activity: inactive
[26]
  inhibition: inactive
[27]
  Activity: Active
